# Assay results: patent EP2767275A1, “Nortriptyline, haloperidol or prochlorperazine edisylate for use in the treatment of tuberculosis as well as two screening methods” (priority 2013, dated 2014)
# Where two headings read alike, the source gives them in different places.
# Columns and labels:
# M. bovis BCG-GFP [1] = assay type: cell-based
# M. bovis BCG-GFP [2] = assay type: cell-based; details: for pattern-specific score (PSS): 10µM, 48 hr
# M. bovis BCG-GFP [3] = assay type: cell-based; details: 10µM, 4 days plus 24hr with alamar blue
# HeLa BAC GFP-Rab5c = assay: Cell-based LDL trafficking assay; design: species or system human
# [4] = tested on: A431 cells stably expressing GFP-Rab5; assay: Live cell imaging of endosome motility; assay type: cell-based; details: 10µM, 2 hr
# HeLa cells = assay: High content autophagy assay (LC3 immunostaining); assay type: cell-based, human; details: 10µM (Rapamycin 5.5 µM), 4 hr
# Experimental: HeLa cells were treated with the compounds at a final concentration of 10µM, incubated for 4 hr, fixed with 3.7% PFA and immunostained with anti-LC3 antibody (clone PM036, MBL labs). Cells were counterstained by DAPI and Cell Mask Blue, imaged and analyzed as described above.
# Autophagy is a key process regulated by mTOR (Laplante and Sabatini, 2012) and a known mediator of intracellular mycobacterial survival (Gutierrez et al., 2004; Kumar et al., 2010). The integration approach predicted that compounds from E1, but not E2, modulate autophagy. To test it, HeLa cells were treated with the compounds, immunostained for the autophagosome marker LC3 and multiple parameters reporting diverse facets of autophagosomes were extracted (Table 3). […] Of the three compounds validated in intracellular mycobacterial killing, Nortriptyline and PE belong to sub-cluster E1 whereas Haloperidol belongs to E2.
# [5] = tested on: HeLa cells stably expressing mRFP-GFP-LC3; assay type: cell-based, human; details: for mRFP to GFP co-localisation: 2 hr, N and PE 10µM, Chloroquine 25 µM, BafilomycinA1 100nM; for co-localisation of mRFP and GFP over time: different periods of time
# Experimental: Second, an established assay was used for measuring autophagic flux based on a tandem mRFP-GFP-LC3 construct (Kimura et al., 2007). Since GFP is quenched in the acidic environment of autophagolysosomes whereas mRFP remains stable, agents blocking autophagy flux display higher colocalization of mRFP and GFP compared to those inducing autophagy. HeLa cells stably expressing mRFP-GFP-LC3 (Settembre et al., 2011) were treated with the compounds and the co-localization between mRFP and GFP was quantified. […] Similar results were obtained for the co-localisation of LC3-GFP with LBPA in HeLa-LC3-GFP cells (Figure 12D).
# The increased acidification by PE is in apparent contradiction with the inhibition of autophagic flux. To solve this discrepancy, HeLa cells stably expressing mRFP-GFP- -LC3 were treated with the compounds for different periods of time.
# HeLa BAC LC3-GFP = assay type: cell-based, human
# M. bovis BCG-GFP [6] = assay type: cell-based; remark: listed apart in the source
# LC3 = details: for LC3-II band: 10 µM; for additive effects of BafilomycinA1 on LC3-II band: 10 µM with BafilomycinA1 100nM
molecule,measurement,setting,value
"O=C(CCCN1CCC(O)(c2ccc(Cl)cc2)CC1)c1ccc(F)cc1 [Haloperidol, 4-[4-(4-chlorophenyl)-4-hydroxy-1-piperidyl]-1-(4-fluorophenyl)-butan-1-one]",bacteriostatic activity on M. bovis BCG-GFP at neutral and acidic pH,M. bovis BCG-GFP [1]; 10 µM,did not show bacteriostatic activity
same,phenotype (phenotypic profile) in mycobacteria high content screen,M. bovis BCG-GFP [2],"reduced bacterial intensity, fewer bacteria and infected cells"
same,effect in the alamar blue screen,M. bovis BCG-GFP [3],lack of effect
same,intensity of LDL in early and late endosomes,"HeLa BAC GFP-Rab5c; 10µM, LDL pulse for different times","significantly increased the intensity of LDL in late, but not early endosomes"
same,"size, number and position of LDL-containing late endosomes","HeLa BAC GFP-Rab5c; 10 µM, late, but not early endosomes","larger, more numerous and closer to the cell centre"
same,mean square displacement of endosomes,[4],"long, but not short, time-scale movements of GFP-Rab5 endosomes were significantly accelerated"
same,motility of early endosomes,[4],much higher motility of early endosomes harboring high levels of Rab5
same,effect on autophagy,HeLa cells,did not
CO/C1=C\C(C)=C\[C@@H](C)[C@@H](O)[C@@H](C)C/C(C)=C/C=C/[C@H](OC)[C@@H]([C@@H](C)[C@@H](O)[C@H](C)[C@@]2(O)C[C@@H](O)[C@H](C)[C@@H](C(C)C)O2)OC1=O [BafilomycinA1],mRFP to GFP co-localisation,[5],higher co-localisation
same,co-localisation of mRFP and GFP over time,[5],increased over time
COc1cc2c3cc1Oc1cc(ccc1O)C[C@@H]1c4c(cc(OC)c(O)c4Oc4ccc(cc4)C[C@@H]3N(C)CC2)CC[N+]1(C)C.Cl.O.O.O.O.O.[Cl-] [TUBOCURARINE CHLORIDE],pattern-specific score (PSS),M. bovis BCG-GFP [2],0.7944
NC(C(=O)O)C(O)C(=O)O [D;L-THREO-3-HYDROXYASPARTIC ACID],pattern-specific score (PSS),M. bovis BCG-GFP [2],0.8004
CN(C)c1nc(N)c(C(=O)N=C(N)N)nc1Cl [N;N-DIMETHYLAMILORIDE],pattern-specific score (PSS),M. bovis BCG-GFP [2],0.5976
C[C@@H]1CC[C@@]2(OC1)O[C@H]1C[C@H]3[C@@H]4CC[C@@H]5C[C@@H](O)CC[C@]5(C)[C@H]4CC[C@]3(C)[C@H]1[C@@H]2C [SMILAGENIN],pattern-specific score (PSS),M. bovis BCG-GFP [2],0.7198
CN1CCc2c(c3ccccc3n2Cc2ccccc2)C1.CN1CCc2c(c3ccccc3n2Cc2ccccc2)C1.O=S(=O)(O)c1cccc2c(S(=O)(=O)O)cccc12 [MEBHYDROLIN NAPHTHALENESULFONATE],pattern-specific score (PSS),M. bovis BCG-GFP [2],0.9999
CO/N=C(\C(=O)N[C@@H]1C(=O)N2C(C(=O)OCOC(=O)C(C)(C)C)=C(/C=C\c3scnc3C)CS[C@H]12)c1csc(N)n1 [CEFDITORIN PIVOXIL],pattern-specific score (PSS),M. bovis BCG-GFP [2],0.8626
"CN1CCN(CCCN2c3ccccc3Sc3ccc(Cl)cc32)CC1 [Prochlorperazine edisylate, 2-chloro-10-[3-(4-methyl-1-piperazinyl)propyl]-10H-phenothiazine]",bacteriostatic activity on M. bovis BCG-GFP at neutral and acidic pH,M. bovis BCG-GFP [1]; 10 µM,did not show bacteriostatic activity
same,phenotype (phenotypic profile) in mycobacteria high content screen,M. bovis BCG-GFP [2],"reduced bacterial intensity, fewer bacteria and infected cells"
same,effect in the alamar blue screen,M. bovis BCG-GFP [3],lack of effect
same,additive effect with BafilomycinA1 and Chloroquine in increasing LC3-GFP vesicles,"HeLa BAC LC3-GFP; 10 µM, 4 hours, Chloroquine 25 µM, BafilomycinA1 100nM",not
same,synergy with IFN-γ on mycobacterial survival,M. bovis BCG-GFP [6],much weaker effect
same,mRFP to GFP co-localisation,[5],higher co-localisation
same,co-localisation of mRFP and GFP over time,[5],increased within the first hr but then progressively decreased
same,LC3-II band,LC3,significant increase in the LC3-II band
same,additive effects of BafilomycinA1 on LC3-II band,LC3,not
same,effect on autophagy,HeLa cells,strong effect on autophagy
CSc1ccc2c(c1)C(N1CCN(C)CC1)Cc1ccccc1S2.O=C(O)/C=C\C(=O)O (centres unmarked) [METHIOTHEPIN MALEATE],pattern-specific score (PSS),M. bovis BCG-GFP [2],0.9941
CCN(CC)CCCC(C)Nc1ccnc2cc(Cl)ccc12 (centres unmarked) [Chloroquine],mRFP to GFP co-localisation,[5],higher co-localisation
same,co-localisation of mRFP and GFP over time,[5],increased over time
TOTAROL ACETATE,pattern-specific score (PSS),M. bovis BCG-GFP [2],0.7904
O=S(=O)(NCCNC/C=C/c1ccc(Br)cc1)c1cccc2cnccc12 [H89],pattern-specific score (PSS),M. bovis BCG-GFP [2],0.9636
"Cn1cnc(N)c2ncnc1-2 [3-MA, 3-Methyl Adenine]",effect of 3-MA on action of Nortriptyline on mycobacterial survival,M. bovis BCG-GFP [2],reverted the effect of Nortriptyline on mycobacterial survival
"CNCCC=C1c2ccccc2CCc2ccccc21 [Nortriptyline, 3-(10,11-dihydro-5H-dibenzo[a,d]cyclohepten-5-ylidene)-N-methyl-1-propanamine]",bacteriostatic activity on M. bovis BCG-GFP at neutral and acidic pH,M. bovis BCG-GFP [1],did not show bacteriostatic activity
same,phenotype (phenotypic profile) in mycobacteria high content screen,M. bovis BCG-GFP [2],"reduced bacterial intensity, fewer bacteria and infected cells"
same,effect in the alamar blue screen,M. bovis BCG-GFP [3],lack of effect
same,additive effect with BafilomycinA1 and Chloroquine in increasing LC3-GFP vesicles,HeLa BAC LC3-GFP,had an additive effect
same,synergy with IFN-γ on mycobacterial survival,M. bovis BCG-GFP [6],synergized strongly with IFN-γ
same,mRFP to GFP co-localisation,[5],low mRFP to GFP co-localisation
same,LC3-II band,LC3,significant increase in the LC3-II band
same,additive effects of BafilomycinA1 on LC3-II band,LC3,additive effects of BafilomycinA1 were seen
same,effect on autophagy,HeLa cells,strong effect on autophagy
CC1(C)CC2C1CCC1(C)OC2(C)CCC1O (centres unmarked) [3;7-EPOXYCARYOPHYLLAN-6-OL],pattern-specific score (PSS),M. bovis BCG-GFP [2],0.7194
OC[C@@H](O)[C@@H](OC1O[C@H](CO)[C@@H](O)[C@H](O)[C@H]1O)[C@H](O)[C@@H](O)CO (some centres unmarked) [GLUCITOL-4-GUCOPYANOSIDE],pattern-specific score (PSS),M. bovis BCG-GFP [2],0.8836
COc1cc2c(cc1OC)C1(O)C(=O)c3ccc(O)c(C(=O)O)c3OC1CO2 (centres unmarked) [12A-HYDROXY-9-DEMETHYLMUNDUSERONE-8-CARBOXYLIC ACID],pattern-specific score (PSS),M. bovis BCG-GFP [2],0.8387
O=c1cc(-c2cc(O)c(O)c(O)c2)oc2cc(O)cc(O)c12 [HIERACIN],pattern-specific score (PSS),M. bovis BCG-GFP [2],0.3164
TRIMEPRAZINE TARTRATE,pattern-specific score (PSS),M. bovis BCG-GFP [2],1
CC([C@H](O)c1ccccc1)N(C)C (stereo partly drawn) [N-METHYL (-)EPHEDRINE],pattern-specific score (PSS),M. bovis BCG-GFP [2],0.8936
